Molecules are shown by their SMILES. In brackets after ≈: the same amount, converted by molar mass.

Here are results for seven molecules from ChEMBL document CHEMBL1147592, “Novel quinazoline-quinoline alkaloids with cytotoxic and DNA topoisomerase II inhibitory activities” (Bioorg Med Chem Lett, 2004).

One test concerns P388. The experiment in a line: Cytotoxic activity against mouse leukemia P-388 cells. Format: functional, cell-based.
A further test has as its target DNA topoisomerase II (Homo sapiens, UniProt P11388+Q02880). The experiment in a line: Inhibitory activity against human DNA topoisomerase II. Format: protein assay.

As to `Oc1nc(-c2cnc3ccccc3c2)nc2ccccc12`, the IC50 in the test on P388 was found to be 40 µg/mL (≈ 146 µM); against DNA topoisomerase II, 25 µM. Regarding `O=C(c1cnc2ccccc2c1)c1nc(O)c2ccccc2n1`, the half-maximal inhibitory concentration (IC50) is 20 µg/mL (≈ 66.4 µM) in the test on P388 and 25 µM against DNA topoisomerase II. On to `O=c1c2ccccc2nc2n1C(O)c1cc3ccccc3nc1-2` (stereo not drawn), for which the IC50 in the test on P388 is 5 µg/mL (≈ 16.6 µM); on DNA topoisomerase II, 25 µM. Consider `CC(C(C)N1CC(=O)NC(=O)C1)N1CC(=O)NC(=O)C1` (stereo not drawn) [ICRF-193], for which, on DNA topoisomerase II, the IC50 was determined as 13.9 µM. In the case of `CC(=O)NC1c2cc3ccccc3nc2-c2nc3ccccc3c(=O)n21` (stereo not drawn), the IC50 in the test with P388 was 33 µg/mL (≈ 96.4 µM); against DNA topoisomerase II, 25 µM.

`COC1c2cc3ccccc3nc2-c2nc3ccccc3c(=O)n21` (stereo not drawn): the results for the IC50 with P388 and against DNA topoisomerase II were 9 µg/mL (≈ 28.5 µM) and 25 µM, respectively.

In the case of `O=c1c2ccccc2nc2n1Cc1cc3ccccc3nc1-2` [LUOTONIN A], the IC50 in the test with P388 worked out at 1.8 µg/mL (≈ 6.31 µM); against DNA topoisomerase II, 28.5 µM.

A word on the IC50: it is the concentration needed to halve the response being measured. A low value points to higher potency.
